The values below come from patent publication US4376785A, “Cyclopropanecarboxylates and a low fish toxic insecticide and/or acaricide containing them” (priority 1980, dated 1983).

Each structure is given as a SMILES string. Like-named read-outs stand apart in the source and are kept apart here.

The nature of series [1]: Toxicity to killifish (TLm48), Test example 1. The following applies: for selectivity ratio: in vivo, TLm48 divided by concentration in water at green rice leafhopper LC50, read-out: Safety coefficient to fishes (a)/(b); for LC50 at 48 h: water, killifish, medium tolerance limit, read-out: Toxicity to fishes TLm48 (a). Format: in vivo, Oryzias latipes. How it is done: (§1) Toxicity to killifish (Oryzias latipes) was tested accordig to the test method for toxicity to fishes described in Notification B No. 2735 of the Ministry of Agriculture and Forestry (Nov. 25, 1965). Namely, each of the present compounds (1), (2), (4), (5), (6), (8), (9), (11) and reference compounds was dissolved or suspended in "Tween 80" and diluted successively with dechlorinated tap water. Ten killifish (0.2-0.3 g per fish) were released in a 10-liter glass vessel containing 5 liters of each preparation.
(§2) In order to make it clearer that the present compounds have a low toxicity to fishes as well as a high insecticidal activity, a safety coefficient to fishes was calculated from the test results of toxicity to fishes and insecticidal activity. [formula]
(§3) A detailed explanation will be given to a method of how to calculate the safety coefficient. In the case of green rice leafhoppers, calculation was based on the concentration of active ingredient in water obtained by applying a test solution containing the active ingredient in an amount corresponding to LC50 (ppm) to a flooded paddy field 5 cm deep at a rate of 100 liter/10 are, provided that all the active ingredient applied entered the water.
(§4) For example, the safety coefficient to fishes of the present compound (1) is calculated as follows: The quantity of water in a flooded paddy field 5 cm deep and 10 are in area is 50 tons; when a test solution containing the active ingredient in an amount corresponding to LC50 (ppm) is added to the paddy field at a rate of 100 liter/10 are the concentration of the active ingredient in water (hereinafter referred to as (b)) is 0.008 pp; as the toxicity to fishes [TLm48 (ppm)] (hereinafter referred to as (a)) is >2.0 ppm, said coefficient can be calculated by dividing (a) by (b). In this case, the coefficient is >250, which means that the present compound (1) has a safety higher than 250-fold.

In series [2] the test system is green rice leafhopper (Nephotettix cincticeps), R-strain. Kind of series: Insecticidal activity against green rice leafhopper, sprayed rice plants, Test example 1. The series is classed as in vivo. Conditions: green rice leafhopper female adults, spray on rice plant, 26° C., 24 hours. The method, then:
The emulsifiable concentrates of the present compounds and reference compounds prepared in Preparation example 1 were each formulated into test solutions having four different concentrations of active ingredient between 500 ppm and 0.5 ppm. Each test solution was sprayed on a rice plant in a 180-ml plastic cup which had elapsed one month after sowing, at a rate of 15 ml/2 cups by means of a turn table. After air-drying, the rice plate was covered with a wire-screen cage, and 15 female adults of green rice leafhopper (Nephotettix cincticeps) (a strain resistant to carbamates and organo-phosphates, hereinafter referred to as R-strain) were liberated therein. The plant was placed in an artificial climate chamber kept at 26° C. After 24 hours, the dead and alive were examined. The median lethal concentratin [LC50 (ppm)] was calculated from the mortality determined by 3 replications. […]

In series [3] the test system is yellow fever mosquito (Aedes aegypti). The series is classed as in vivo. The following applies: 50 mg of granules (Preparation example 6) in 100 ml water, full grown larvae, after 24 hours. How it is done:
Fifty milligrams of each of the granules of the present compounds (5) and (11) obtained in Preparation example 6 was placed in a 100-ml beaker containing 100 ml of distilled water, and 30 full grown larvae of yellow fever mosquito (Aedes aegypti) were liberated therein. After 24 hours, 100% of the larvae could be killed.

In series [4] the test system is carmine mites (Tetranychus cinnabarinus). Kind of series: Damage to rice plants by carmine mites, Test example 4. Format: in vivo. Conditions: 500 ppm spray, after 10 days. The method, then:
The emulsifiable concentrate of each of the present compounds (3), (5), (9) and (11) prepared in Preparation example 1 was diluted with water so that the concentration of the active ingredient was 500 ppm. The dilute liquor was thoroughly sprayed on rice plants (grown in a 1/10,000 are Waner's pot) on which carmine mites (Tetranychus cinnabarinus) in all stages were made parasitic.

For series [5], the system named is green rice leafhopper (Nephotettix cincticeps). The series is described as follows: Residual effect test, Text example 5. Conditions: 20 cc per pot, 24 hours. Format: in vivo. How it is done: The emulsifiable concentrate of each of the present compounds (5) and (11) prepared in Preparation example 1 was diluted with water so that the conentration of active ingredient was 400 ppm. Thereafter, 20 cc of the dilute solution was sprayed on rice plants grown in a 1/10,000 are Wagner's pot. The rice plants were air-dried and covered with a wire-screen cage, and 15 female adults of green rice leafhopper (Nephotettix cincticeps) were liberated therein. After 24 hours, the dead and alive were examined to obtain mortality. In order to examine the residual effect, the pot was then left as it was for 7 days, and the test insects were liberated in the same manner as above. After 24 hours, the mortality was examined. The experiment was carried out in a greenhouse and the number of replications was three.

The test system is the same in series [6]. The series is described as follows: Simulated paddy field box test, green rice leafhopper, Test example 6. The series is classed as in vivo. The following applies: wettable powder, 100 ppm, 100 liter/10 are, after 48 hours. The method, then:
(§5) The wettable powder of each of the present compounds (1), (3), (5), (6) and (11) prepared in Preparation example 4 was diluted with water so that the concentration of active ingredient was 100 ppm. Soil was placed in a plastic box [5 m×5 m×2 m (deep)] to a level of 50 cm from the bottom, and rice plants about 50 cm high were transplanted at invervals of 50 cm. Water was then placed in the box so that water depth was 5 cm, and 20 killifishes (Oryzias latipes) were liberated therein. Thereafter, the above dilute solution was sprayed on the box at a rate of 100 liter/10 are. The solution fell on the rice plants as well as on the water surface.
(§6) One hour after treatment, 100 female adults of green rice leafhopper (Nephotettix cincticeps) were liberated in the box which was immediately covered with a net.

Series [7] concerns killifishes (Oryzias latipes). The series is described as follows: Simulated paddy field box test, killifish survival, Test example 6. The following applies: wettable powder, 100 ppm, 100 liter/10 are, water depth 5 cm, after 48 hours. The series is classed as in vivo. How it is done: as §5, §6
In series [8] the test system is housefly (Musca domestica). Kind of series: Housefly mortality, treated filter paper with bait, Test example 7. The following applies: 0.7 ml on filter paper, housefly female adults, 48 hours. The series is classed as in vivo. The method, then: The emulsifiable concentrate obtained in preparation Example 1 was diluted 200 times with water (corresponding to 500 ppm of the active ingredient). On the bottom a polyethylene cup of 5.5 cm in diameter was placed a piece of filter paper of the same size, and 0.7 ml of the above dilute liquor was dropped on the filter paper. Sucrose (30 mg) was placed on the paper as bait. Thereafter, 10 housefly female adults (Musca domestica) were liberated in the cup which was then covered with a lid. After 48 hours, the dead and alive were counted to obtain mortality (4 replications).

Series [9] concerns CSMA strain housefly (Musca domestica). The series is described as follows: Topical application to housefly adults, Test example 8. Format: in vivo. Conditions: topical to ventral thorax, 0.5 μl/adult, female adults, 24 hours. How it is done: The present compounds as below and reference compounds were each diluted with acetone into test solutions having four different concentrations of active ingredient. Each test solution was topically applied to the ventral throrax of CSMA strain housefly female adults (Musca domestica), at a rate of 0.5 μl/adult by means of a microapplicator.
The adults were then liberated in a polyethylene cup and fed with milk, sugar and water. After 24 hours, the dead and alive were observed. The median lethal dosage (LD50 μg/adult) was obtained from the morality (3 replications).

The test system of series [10] is killifish (Oryzias latipes). The series is described as follows: Toxicity to killifish (TLm48), Test example 1. The series is classed as in vivo. Conditions: killifish, medium tolerance limit, 48 hours. How it is done: as §1, §2, §3, §4
[11] abbreviates: insects liberated 7 days after treatment, read-out: Mortality, effect 7 days after treatment.
The mark [12] stands for this setting: read-out: Mortality, effect immediately after treatment.

For orientation: mortality means the share of the test organisms that died. Turning to `CC1(C)C(C(=O)OC(C#N)c2ccc(F)c(Oc3ccc(Cl)cc3)c2)C1C(Br)C(Cl)(Cl)Br` (stereo not drawn) [compound (5), 3-(4-Chlorophenoxy)-4-fluoro-α-cyanobenzyl 2,2-dimethyl-3-(1,2-dibromo-2,2-dichloroethyl)cyclopropanecarboxylate], in series [1], the selectivity ratio was greater than 100 and the LC50 at 48 h was greater than 1 µg/mL. Also, in series [2], the LC50 was found to be 4.8 ppm. In [3], this molecule came in with a larvae killed of 100%. Besides, the “damage to rice plants by carmine mites” value in [4] is “the spreading of the damage could be prevented”. For the same molecule, the mortality at 400 ppm in series [5] (setting [11]) came to 100%. In addition, the mortality at 400 ppm in series [5] (setting [12]) came to 100%. For the same molecule, the “green rice leafhoppers alive” value in series [6] is reported as “no alive green rice leafhoppers were found”. Besides, the killifishes alive result in [7] was “all of the killifishes were alive”. This molecule also came in with a mortality at 500 ppm in [8] of 100%. In series [9], this molecule showed an LD50 of 0.033 μg/adult.
Take `CC1(C)[C@H](C(=O)OC(C#N)c2ccc(F)c(Oc3ccc(Br)cc3)c2)[C@H]1C(Br)C(Cl)(Cl)Br` (relative stereo) [compound (1), 3-(4-Bromophenoxy)-4-fluoro-α-cyanobenzyl dl-trans-2,2-dimethyl-3-(1,2-dibromo-2,2-dichloroethyl)cyclopropanecarboxylate]: in series [1], the selectivity ratio is greater than 250 and the LC50 at 48 h was greater than 2 µg/mL. For the same molecule, in series [10], the “Toxicity to fishes TLm48 (a)” value is listed as greater than 2.0 ppm. In series [2], this molecule displayed an LC50 of 3.8 ppm. Also, the “green rice leafhoppers alive” value in series [6] is recorded as “no alive green rice leafhoppers were found”. In addition, the killifishes alive result in [7] is “all of the killifishes were alive”.
With `CC1(C)C(C(=O)OC(C#N)c2ccc(F)c(Oc3ccc(Br)cc3)c2)C1C(Br)C(Cl)(Cl)Br` (stereo not drawn) [(11), 3-(4-bromphenoxy)-4-fluoro-α-cyanobenzyl 2,2-dimethyl-3-(1,2-dibromo-2,2-dichloroethyl)cyclopropanecarboxylate], the selectivity ratio in series [1] was greater than 200. Also, the LC50 at 48 h in series [1] was greater than 2 µg/mL. Further, the LC50 in series [2] is 4.7 ppm. Also, the larvae killed in [3] is reported as 100%. The “damage to rice plants by carmine mites” value in [4] is “the spreading of the damage could be prevented”. For the same molecule, the mortality at 400 ppm in series [5] (setting [11]) and in [5] (setting [12]) was 100% in each case. Besides, the “green rice leafhoppers alive” value in [6] is on record as “no alive green rice leafhoppers were found”. For the same molecule, in [7], the killifishes alive result was “all of the killifishes were alive”.
